We go through 35 molecules from US7566805B2, “Modafinil compositions” (priority 2003, dated 2009).

Where two headings read alike, the source gives them in different places.

The conditions of data set [1]: cited from earlier work.
The conditions of data set [2]: dogs, 30 mg/kg oral dose, plasma 2 to 9 hours post-dose, cited from earlier work; for Mean AUC (sulfone): sulfone metabolite.
Data set [3] is described as follows: Pharmacokinetic study with dogs: modafinil:malonic acid formulated with lactose vs PROVIGIL tablets. The format is in vivo. The text has this:
In Table VI, “Cmax” is the maximum blood plasma concentration, “AUC (inf)” is the extrapolated area under the curve, “t1/2” is the amount of time for the blood plasma level to decrease to half of the Cmax level beginning at administration, “Tmax” is the time to maximum blood plasma concentration from administration, “CL” is the clearance rate of modafinil, and “F %” is the percent bioavailability.

The nature of data set [4]: Solid-state stability of modafinil:malonic acid co-crystal at various temperatures and relative humidities. The format is physicochemical. Conditions: for degradation / degradation per day: four week period. The protocol:
At 60 degrees C., about 0.14 percent degradation per day was determined based on a simple exponential model. At 80 degrees C., about 8 percent degradation per day was determined.
FIGS. 49 and 50 show the % area impurities as measured via HPLC versus time (weeks) for samples stored at various conditions including: 25 degrees C., 60% RH; 40 degrees C., 75 percent RH; 40 degrees C., ambient RH; 60 degrees C., ambient RH; 80 degrees C., ambient RH; and −20 degrees C.

Data set [5] can be described thus: In vitro dissolution in simulated gastric fluid (SGF) and simulated intestinal fluid (SIF). The following applies: micronized, blended with lactose, HPMC capsules.
Source text: Further aqueous solubility can be measured in simulated gastric fluid (SGF) or simulated intestinal fluid (SIF) rather than water.
Both samples were blended with lactose and filled into HPMC capsules.
Data set [6] in a line: Dynamic vapor sorption isotherm. Type of data set: physicochemical. Conditions: up to at least 40 percent RH at 26 degrees C.
Data set [7] in a line: Racemic modafinil:malonic acid co-crystal pharmacokinetic study in dogs (vs micronized pure modafinil). Type of data set: in vivo. The protocol: As a reference, micronized modafinil with a median particle size of about 2 micrometers was also administered in the study.
Data set [8] is described as follows: Dog pharmacokinetic study of a single intravenous dose of R-(−)-modafinil vs racemic modafinil. Type of data set: in vivo. The following applies: dogs; for AUC(0-inf) / Cmax / Vd / clearance / half-life: dog, plasma, 5 mg/kg IV, Mean. The text has this: A dog pharmacokinetic study (N=6) of a single intravenous dose of R-(−)-modafinil was completed. The purity of the R-(−)-modafinil in the administered formulation was ca 80 percent. This formulation was compared to a formulation of racemic modafinil, also administered by the intravenous route to the same dogs in a crossover design. Ir. Table VII, “Cmax” is the maximum blood plasma concentration, “AUC (inf)” is the extrapolated area under the curve, “t1/2” is the amount of time for the blood plasma level to decrease to half of the Cmax level beginning at administration, “Vd” is the volume of distribution, and “CL” is the clearance rate of modafinil.

The conditions of data set [9]: cited from earlier work. This is another data set of the same source.
The mark [10] stands for this setting: second value listed in the cell.

Regarding `CC1(C(=O)O)CCC(C(=O)O)C1(C)C` (stereo not drawn) [Camphoric acid], in data set [1] (setting [10]), the “pKa Values” is 5.83.
Take `CN(C)CC(=O)O` [Dimethylglycine]: the “pKa Values” in data set [1] (first value listed in the cell) is 2.5.
On to Urea, for which the “pKa Values” in data set [1] (first value listed in the cell) was around 8.
For the molecule `NC1[C@H](O)OC(CO)[C@@H](O)[C@H]1O` (stereo partly drawn) [Glucosamine], the “pKa Values” in [1] (first value listed in the cell) was 6.91.
Consider `N[C@@H](Cc1c[nH]c2ccccc12)C(=O)O` [Tryptophan], for which the “pKa Values” in [1] (setting [10]) was 9.39.
Consider `NC(=O)C[C@H](N)C(=O)O` [Asparagine], for which the “pKa Values” in data set [1] (first value listed in the cell) was 2.02; in data set [1] (setting [10]), 8.5.
Turning to `NC(=O)c1cccnc1` [Nicotinamide], in data set [1] (first value listed in the cell), the “pKa Values” is reported as 3.3.
As to Imidazole, the “pKa Values” in data set [1] (first value listed in the cell) was 6.92.
Regarding `Nc1ccncc1` [4-aminopyridine], in [1] (first value listed in the cell), the “pKa Values” was 10.
Consider `O=C(O)[C@@H](O)[C@H](O)[C@H](O)[C@@H](O)C(=O)O` [Galactaric acid], for which the “pKa Values” in [1] (setting [10]) is on record as 3.63.
Consider `NC(=O)C[S@+]([O-])C(c1ccccc1)c1ccccc1` [Example 40-983, S-(+)-2-[(Diphenylmethyl)sulfinyl]acetamide], for which, in data set [2], the “Mean AUC (racemate)” value is 50940 ± 8770 ng·h/mL and the “Mean AUC (sulfone)” value was 83120 ± 21660 ng·h/mL.
Consider `Oc1ncnc2[nH]ncc12` [Allopurinaol], for which the “pKa Values” in data set [1] (first value listed in the cell) was 10.2.
On to `OC[C@@H](O)[C@H](O)[C@@H](O)CO` [Xylitol], for which, in data set [1] (first value listed in the cell), the “pKa Values” is recorded as around 9.
Turning to `Nc1ccc(C(=O)O)cc1` [4-aminobenzoic acid], the “pKa Values” in data set [1] (first value listed in the cell) is recorded as 4.7.
For `CCCCCCCCCCCCCCCC(=O)O` [Palmitic acid], in [1] (first value listed in the cell), the “pKa Values” is given as 4.9.
For `C[C@@H](O)[C@H](N)C(=O)O` [Threonine], the “pKa Values” is listed as 2.15 in data set [1] (first value listed in the cell) and 9.12 in data set [1] (setting [10]).
With `Cc1ncc(CO)c(CN)c1O` [Pyridoxamine], the “pKa Values” in [1] (first value listed in the cell) was around 9.
Consider `CCOc1ccc(NC(N)=O)cc1` [4-ethoxyphenyl urea], for which, in data set [1] (first value listed in the cell), the “pKa Values” is ~7-9.
Regarding `Nc1ccc(C(=O)O)c(O)c1` [Salicylic acid, 4-amino], the figures for the “pKa Values” in [1] (first value listed in the cell), in data set [1] (setting [10]) and in [1] (third value listed in the cell) were 3.25, 10 and 3.5, respectively.
Take “Racemic Modafinil:Malonic Acid Co-crystal [Modafinil: malonic acid co-crystal]”: the CL in [3] (200 mg modafinil, Mean) is 368.33. The Tmax amounted to 2 h in data set [3] (200 mg modafinil, Mean) and 1.7 ± 0.6 h in data set [7]. Also, the “AUC (inf)” value in data set [3] (200 mg modafinil, Mean, extrapolated, in ng·h/mL) is 50545.00. The Cmax in [3] (200 mg modafinil, Mean, in ng/mL) was found to be 11246.67. Moreover, the F % in [3] (200 mg modafinil, Mean, percent bioavailability) was found to be 81.57%. The “Cmax compared with PROVIGIL tablets” value in data set [3] (FIG. 56) is listed as “increased”. The degradation entry in data set [4] (20 degrees C.) and in data set [4] (40 degrees C.) was “No degradation” each time. Besides, the degradation per day result is recorded as “about 0.14 percent degradation per day” in [4] (60 degrees C., simple exponential model) and “about 8 percent degradation per day” in data set [4] (80 degrees C.). Further, the “stability on storage (% area impurities via HPLC)” value in data set [4] (stored at or below 40 degrees C. for at least 26 weeks) is “stable”. The “release of modafinil into solution vs free form of modafinil” value in data set [5] (SGF) and in [5] (SIF) was “more quickly” each time. For the same molecule, the “water adsorption (DVS)” value in data set [6] is listed as “no appreciable water adsorption”. In addition, the “AUC higher than that of the pure modafinil” value in data set [7] was 40 to 60%.
For `N=C(N)NCCC[C@H](N)C(=O)O` [Arginine], the “pKa Values” is reported as 2.18 in data set [1] (first value listed in the cell) and 9.09 in [1] (setting [10]).
For the molecule `Nc1ncnc2nc[nH]c12` [Adenine], the “pKa Values” in [1] (first value listed in the cell) is on record as 3.8.
With `O=C(O)[C@H](O)[C@@H](O)[C@H](O[C@@H]1O[C@H](CO)[C@H](O)[C@H](O)[C@H]1O)[C@H](O)CO` [Lactobionic acid], in [1] (first value listed in the cell), the “pKa Values” was 3.2.
Regarding Acetohydroxamic acid, in data set [1] (first value listed in the cell), the “pKa Values” is 8.7.
Take `Cc1ncc(CO)c(CO)c1O` [Pyridoxine]: the “pKa Values” in data set [1] (first value listed in the cell) is around 9.
In data set [8], `NC(=O)C[S+]([O-])C(c1ccccc1)c1ccccc1` (racemic) [Racemic Modafinil, (±)-2-[(Diphenylmethyl)sulfinyl]acetamide] had an AUC(0-inf) of 15100 ng·h/mL, a Cmax of 8680 ng/mL, a Vd of 0.589 L/kg and a clearance of 5.68 mL/min/kg. The molecule also showed a half-life in data set [8] of 1.05 h. Also, in data set [2], the “Mean AUC (racemate)” value is 46760 ± 6950 ng·h/mL and the “Mean AUC (sulfone)” value is 35120 ± 6930 ng·h/mL. Also, in data set [9], the solubility in water entry is listed as “practically insoluble”. In [7] (dog, in vivo), this molecule showed a half-life of 2.1 ± 0.7 h. For the same molecule, the Cmax in data set [7] (dog, in vivo, median particle size 2 micrometers (pure modafinil), 16 micrometers (co-crystal)) is 11000 ± 5900 ng/mL. Further, the Tmax in data set [7] (dog, in vivo, read-out: Tmax) stood at 1.3 ± 0.6 h.
For `O=C(O)CCCC(=O)O` [Glutaric acid], the “pKa Values” in [1] (first value listed in the cell) is 2.7; in data set [1] (setting [10]), 4.5.
Consider `CC(C)[C@H](N)C(=O)O` [Valine], for which the entries for the “pKa Values” in [1] (first value listed in the cell) and in data set [1] (setting [10]) were around 4.5 and around 9, respectively.
Turning to `N[C@@H](CS)C(=O)O` [Cysteine], the “pKa Values” in [1] (first value listed in the cell) is given as 1.71; in data set [1] (setting [10]), 8.33; in data set [1] (third value listed in the cell), 10.78.
For the molecule `N[C@@H](Cc1ccccc1)C(=O)O` [Phenylalanine], the “pKa Values” was around 2 in data set [1] (first value listed in the cell) and around 9 in data set [1] (setting [10]).
For the molecule `O=C(O)c1cc(=O)[nH]c(=O)[nH]1` [Orotic acid], the “pKa Values” in data set [1] (first value listed in the cell) is reported as 5.85; in data set [1] (setting [10]) it was 8.95.
`Cc1cc(N)c2ccccc2c1O` [Vitamin K5]: the melting point is 280 to 282 °C (dec.). Moreover, in data set [1] (first value listed in the cell), the “pKa Values” is around 9.
As to `CCCCCCCCCCCC(=O)O` [Lauric acid], the “pKa Values” in [1] (first value listed in the cell) is around 4.5.
For `NC(=O)C[S@@+]([O-])C(c1ccccc1)c1ccccc1` [R-(−)-modafinil, R-(−)-2-[(Diphenylmethyl)sulfinyl]acetamide], in data set [8], the AUC(0-inf) stood at 15900 ng·h/mL, the Cmax was determined as 7810 ng/mL, the Vd came out at 0.647 L/kg and the clearance is 5.67 mL/min/kg. Further, in [8], the half-life was 1.53 h. The “difference in pharmacokinetics vs racemic modafinil” value in [8] (intravenous administration) was “no significant difference”. Besides, in [2], the “Mean AUC (racemate)” value was 97220 ± 12580 ng·h/mL and the “Mean AUC (sulfone)” value was 8690 ± 1220 ng·h/mL.
As to `CC[C@H](C)[C@H](N)C(=O)O` [Isoleucine], the “pKa Values” is 2.32 in data set [1] (first value listed in the cell) and 9.76 in data set [1] (setting [10]).
